Experimental data reported in patent US10105349B2, “Organic compounds” (INTRA-CELLULAR THERAPIES, INC., priority 2014, dated 2018).
Read-outs that look alike come from different tables or passages of the source.

How the values were obtained:
[1] = published standard, 10 mg/kg PO; cited from earlier work
[2] = target: r-hPDE2A (Homo sapiens (Human), UniProt O00408); assay: Measurement of PDE2 inhibition in vitro (IMAP fluorescence polarization); format: biochemical; conditions: FL-cAMP substrate, buffer supplemented with 1 μM cGMP
Chain of r-hPDE2A (O00408 whole entry): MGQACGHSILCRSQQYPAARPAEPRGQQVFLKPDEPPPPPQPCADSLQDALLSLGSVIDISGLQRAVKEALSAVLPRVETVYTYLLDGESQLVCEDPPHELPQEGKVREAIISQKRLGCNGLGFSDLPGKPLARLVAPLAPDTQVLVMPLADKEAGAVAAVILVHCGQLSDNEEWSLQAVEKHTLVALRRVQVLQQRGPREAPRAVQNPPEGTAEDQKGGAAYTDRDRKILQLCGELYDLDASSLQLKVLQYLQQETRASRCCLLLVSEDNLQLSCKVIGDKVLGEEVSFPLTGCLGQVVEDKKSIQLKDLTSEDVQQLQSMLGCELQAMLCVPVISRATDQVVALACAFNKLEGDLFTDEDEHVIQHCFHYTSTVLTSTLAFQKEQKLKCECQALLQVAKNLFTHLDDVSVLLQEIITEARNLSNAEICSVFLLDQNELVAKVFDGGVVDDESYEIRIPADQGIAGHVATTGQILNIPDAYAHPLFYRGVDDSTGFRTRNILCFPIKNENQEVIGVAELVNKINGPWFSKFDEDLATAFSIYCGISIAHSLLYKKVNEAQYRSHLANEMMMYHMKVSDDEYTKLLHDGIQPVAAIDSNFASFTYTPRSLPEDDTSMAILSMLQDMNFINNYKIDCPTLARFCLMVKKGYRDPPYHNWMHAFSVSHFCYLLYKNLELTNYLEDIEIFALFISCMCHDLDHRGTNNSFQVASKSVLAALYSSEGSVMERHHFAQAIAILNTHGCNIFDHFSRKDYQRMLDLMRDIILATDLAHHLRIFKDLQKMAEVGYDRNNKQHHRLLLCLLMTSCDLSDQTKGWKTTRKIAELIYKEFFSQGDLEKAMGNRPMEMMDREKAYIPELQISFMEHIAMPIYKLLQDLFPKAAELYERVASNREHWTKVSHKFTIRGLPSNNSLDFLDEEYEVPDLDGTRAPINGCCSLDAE
Procedure: Measurement of PDE2 Inhibition In Vitro
r-hPDE2A (Accession No. NM_002599, Homo sapiens phosphodiesterase 2A, cGMP-stimulated, transcript variant 1) A mammalian expression cloning vector with recombinant cDNA copy of the gene is purchased from Origene. Protein is expressed via transient transfection of HEK293 cells. The cells are harvested at 48 hours after transfection, washed once with TBS buffer (50 mM Tris-HCl, pH 7.5, 150 mM NaCl), then lysed by sonication in cold homogenization buffer (50 mM Tris-HCl, pH 7.5, 5 mM MgCl2, 1× protease inhibitor cocktail). The homogenate is centrifuged for 30 min at 15,000 g at 4° C. to obtain the soluble cytosolic fraction. The protein concentration of the cytosol is determined using BCA Protein Assay Kit (Pierce) with bovine serum albumin as a standard.
Assay: PDE2A is assayed with FL-cAMP as substrate. An enzyme titration is first performed to determine the working concentration of PDE. The concentration of the enzyme giving activity of 100 ΔmP in the absence of inhibitor is deemed an appropriate working concentration for PDE.
PDE enzyme is diluted in a standard reaction buffer (10 mM Tris-HCl pH 7.2, 10 mM MgCl2, 0.1% BSA, 0.05% NaN3) according to the titration curve. For PDE2 assay the reaction buffer is supplemented with 1 μM cGMP to fully activate the enzyme. 99 μl of diluted enzyme solution is added into each well in a flat bottom 96-well polystyrene plate and then ˜1 μl of test compound dissolved in 100% DMSO is added. The compounds are mixed and pre-incubated with the enzyme for 10 min at room temperature.
The FL-cNMP conversion reaction is initiated by addition of substrate (45 nM final). Enzyme and inhibitor mix (16 μl) and substrate solution (4 μl of 0.225 μM) are combined in a 384-well microtiter plate. The reaction is incubated in the dark at room temperature for 15 min. The reaction is halted by addition of 60 μl of binding reagent (1:400 dilution of IMAP beads in binding buffer supplemented with 1:1800 dilution of antifoam) to each well of the 384-well plate. The plate is incubated at room temperature for 1 hour to allow IMAP binding to proceed to completion, and then placed in an Envision multimode microplate reader (PerkinElmer, Shelton, Conn.) to measure the fluorescence polarization (Δmp).
A decrease in cAMP concentration, measured as decreased Amp, is indicative of inhibition of PDE activity. […] Test well values are normalized to control reactions run on the same plate (values converted to % of control). IC50 values are estimated using nonlinear regression software, fitting a four-parameter one-site dose-response model (XLFit; IDBS, Cambridge, Mass.). Bottom of curve is fixed at 0% of control.
The total fluorescence intensity of each sample well is measured to calculate the average and standard deviation. If the total fluorescence intensity of any sample well is not within the range of Average±3SD, the mp value of that particular well is discarded.

[3] = system: cGMP levels in the striatum; assay: Measurements of cGMP in mouse brain in vivo
Procedure: Measurements of cGMP in Mouse Brain in vivo:
Striatum are dissected from the mouse brains and assayed for levels of cGMP. Trichloroacetic acid (TCA) is added to tissue samples for a final concentration of 5% TCA and the tissue is immediately sonicated in solution and stored on ice. The sonicated sample is centrifuged at 15,000×g for 20 min at 4° C. to remove the precipitated protein. To extract the TCA, the sample is washed three times in water saturated ether. The samples are then dried under vacuum (Speedvac, Savant SPD111V) at room temperature and re-suspended in 100 μL EIA buffer. […] Each sample is tested in duplicate in precoated assay plates alongside the 8-point cGMP standard dilutions. In addition, blank, maximum binding (B0) and non-specific binding wells are included. To all wells containing 50 μL sample or standard, equal volumes of AChE-linked cGMP and cGMP antibody are added. The plate is incubated at 4° C. for 18 hours. The wells are then washed 5 times with wash buffer. […] Each data point is converted to % B/B0 (100*[(sample or standard OD−average non-specific binding)/(average B0−average non-specific binding)]). The standards are plotted and fit to a 4-parameter logistic equation (FIG. 1). The concentrations of the samples are interpolated from the standard curve using Microsoft Excel and GraphPad Prizm.

[4] = Pharmacokinetic study in mice (plasma and brain availability); format: in vivo; conditions: 10 mg/kg PO; for blood plasma ratio: brain/plasma, po, 10 mg/kg
Procedure: Pharmacokinetic Study in Mice
Mice are given a single oral dose of the compound of Example 22 (10 mg/kg, PO) and plasma and brain availability are measured (0.25-4 h) using HPLC and LC-MS using methods analogous to those described in Zhao et al., J. Chromatogr. B. Analyt. Technol. Biomed. Life Sci. (2005) 819(1):73-80 and Appels, N. M., et al., Rapid Commun. Mass Spec. 2005. 19(15): p. 2187-92.

In the case of `COc1ccc(Cc2nn3c([C@@H](CCCc4ccccc4)[C@@H](C)O)nc(C)c3c(=O)[nH]2)cc1OC` [Bay 60-7550], the Cmax [1] is given as 3 ng/mL and the Tmax [1] is given as 0.25 h.

Work on `CCCCOc1ccc(Cl)c(-n2nc(C)c3c(=O)[nH]c4cccnc4c32)c1` [Example 17, 1-(5-Butoxy-2-chlorophenyl)-3-methyl-1H-pyrazolo[4,3-c][1,5]naphthyridin-4(5H)-one] yielded an IC50 [2] of 28 nM.

In the case of `Cc1nn(-c2cc(Cl)ccc2Cl)c2c1c(=O)[nH]c1ccc(Cl)nc12` [Example 19, 8-Chloro-1-(2,5-dichlorophenyl)-3-methyl-1H-pyrazolo[4,3-c][1,5]naphthyridin-4(5H)-one], the IC50 [2] is reported as 73 nM.

For `CCCCOc1ccc(Cl)c(-n2nc(C)c3c(=O)[nH]c4ccc(Cl)nc4c32)c1` [Example 20, 1-(5-Butoxy-2-chlorophenyl)-8-chloro-3-methyl-1H-pyrazolo[4,3-c][1,5]naphthyridin-4(5H)-one], the IC50 [2] was 12 nM.

`CCCCOc1ccc(Cl)c(-n2nc(C)c3c(=O)[nH]c4ccc(OC)nc4c32)c1` [Example 21, 1-(5-Butoxy-2-chlorophenyl)-8-methoxy-3-methyl-1H-pyrazolo[4,3-c][1,5]naphthyridin-4(5H)-one] showed an IC50 [2] of 9.4 nM.

With `COc1ccc2[nH]c(=O)c3c(C)nn(-c4cc(OCC5CCC5)ccc4Cl)c3c2n1` [Example 22, 1-(2-Chloro-5-(cyclobutylmethoxy)phenyl)-8-methoxy-3-methyl-1H-pyrazolo[4,3-c][1,5]naphthyridin-4(5H)-one] the “cGMP levels in the striatum of mice” value ([3]; 3 mg/kg i.p., 15, 30 or 60 min, compared to Bay 60-7550 (3 mg/kg)) was “increases cGMP levels”, the “brain access compared to Bay60-7550” value ([3]; inferred from striatal cGMP after 3 mg/kg i.p.) was “improvement in brain access” and the brain access ([4]; 0.25-4 h, compared to Bay 60-7550) was “good brain access”. The AUC ([4]; mouse, brain) was 83 ng·h/mL, the AUC(0-t) ([4]; mouse, brain) was 50 ng·h/mL and the Cmax ([4]; mouse, brain) was 17 ng/mL. It also gave a Tmax ([4]; mouse, brain) of 2 h, a half-life ([4]; mouse, brain, read-out: E Half-life (converted)) of 2.4 h and a blood plasma ratio ([4]; mouse, read-out: Blood/plasma Ratio of AUC (area)) of 0.9. It also gave a blood plasma ratio ([4]; mouse, read-out: Blood/plasma Ratio of Cmax (obs)) of 1.4, a blood plasma ratio ([4]; mouse, Blood/plasma Ratio of AUC (0-4 hr) (obs area)) of 1.4 and an IC50 [2] of 5.9 nM.
